The experiment addresses T1, mGluR2 (Homo sapiens, UniProt Q14416).
T1 construct: expressed in transfected cells
Description: reversal of [3H] LY341495 binding at mGluR2. To be noted: [3H] LY341495 radioligand; cells expressing human mGluR subtypes. How it is done:
(D. D. Schoepp, et al., Neuropharmacol., 1996, 35, 1661–1672 and 1997, 36, 111).
LY341495 binding with a Ki of less than 30,000 nM at […]. […] (LY341495 is described in Ornstein et al., J. Med. Chem., 1998, 41, 346–357 and J. Med. Chem., 1998, 41, 358 to 378).

T1 sequence (Q14416 19-872): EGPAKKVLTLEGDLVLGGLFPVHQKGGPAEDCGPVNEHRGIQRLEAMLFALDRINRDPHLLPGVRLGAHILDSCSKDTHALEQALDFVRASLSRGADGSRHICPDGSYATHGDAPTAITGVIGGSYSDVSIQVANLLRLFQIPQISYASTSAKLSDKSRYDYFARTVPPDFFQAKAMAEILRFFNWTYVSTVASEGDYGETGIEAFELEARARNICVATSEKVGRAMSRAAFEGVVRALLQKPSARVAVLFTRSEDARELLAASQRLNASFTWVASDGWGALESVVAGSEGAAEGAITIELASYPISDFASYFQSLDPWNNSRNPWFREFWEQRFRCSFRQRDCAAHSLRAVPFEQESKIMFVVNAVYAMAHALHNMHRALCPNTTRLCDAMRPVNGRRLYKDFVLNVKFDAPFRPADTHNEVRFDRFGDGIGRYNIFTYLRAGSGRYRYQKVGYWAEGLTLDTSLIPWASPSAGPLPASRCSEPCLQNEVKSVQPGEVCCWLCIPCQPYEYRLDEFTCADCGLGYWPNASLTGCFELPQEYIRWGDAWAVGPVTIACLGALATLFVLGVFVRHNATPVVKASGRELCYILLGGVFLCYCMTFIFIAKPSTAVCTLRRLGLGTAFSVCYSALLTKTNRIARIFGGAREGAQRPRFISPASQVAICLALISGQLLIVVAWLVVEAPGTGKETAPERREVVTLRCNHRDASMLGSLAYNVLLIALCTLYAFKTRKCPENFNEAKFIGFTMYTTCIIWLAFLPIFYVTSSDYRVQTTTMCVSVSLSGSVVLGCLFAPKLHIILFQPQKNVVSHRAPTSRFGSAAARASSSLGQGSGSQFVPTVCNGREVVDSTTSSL

`N[C@H](C(=O)O)[C@@H]1[C@@H](C(=O)O)[C@@H]1C(=O)NCc1ccccc1` (racemic) [Example 1, (2SR, 1′SR, 2′RS, 3′RS)-2-[2′-carboxy-3′-(phenylmethylaminocarbonyl)cyclopropyl]glycine]: the Ki came to 3.42 µM.

These data come from US7125871B2, “Excitatory amino acid receptor modulators” (Eli Lilly and Company, priority 2000, dated 2006).
